Read-outs that look alike come from different tables or passages of the source.
Experiments:
HBV = assay: Determination of HBV DNA from the supernatants of HepAD38 cells (anti-HBV activity); format: cell-based, hepatitis B virus; settings: HBV DNA in HepAD38 supernatant, day 6, qPCR, read-out: Cell Activity (EC50)
Procedure, shortened: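 Supernatant viral DNA was measured by LightCycler qPCR, calibrated with pCH-9/3091 plasmid, 6 days after tetracycline-free HepAD38 cultures received half-log serial compound dilutions; untreated and tetracycline-treated cells served as controls; EC50 was fitted by non-linear regression.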

HepAD38 cells = assay: Cell viability assay (AlamarBlue) in HepAD38 cells; settings: HepAD38 cells with 0.3 μg/ml tetracycline, six days incubation, AlamarBlue
HBV core protein = target: T1, HBV core protein (UniProt P03146); assay: Biochemical capsid assembly assay (fluorescence quenching); design: species or system hepatitis B virus; settings: read-out: Assembly Activity (IC50); BODIPY-FL labelled core protein, 300 μM NaCl, read 6 min after start
T1 construct: fused on or other part: BODIPY-FL maleimide label on the C-terminal Cys150
T1 sequence (P03146 whole entry, looked up, the tested form may be a part): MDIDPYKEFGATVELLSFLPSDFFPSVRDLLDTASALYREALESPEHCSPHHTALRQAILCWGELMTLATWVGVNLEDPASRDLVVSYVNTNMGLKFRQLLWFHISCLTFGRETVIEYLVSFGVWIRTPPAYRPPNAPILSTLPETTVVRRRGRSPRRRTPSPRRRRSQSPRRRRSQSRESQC
Procedure, shortened: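 Assembly-induced fluorescence quenching (477/525 nm) was measured 6 min after NaCl addition ([…]), against 2.5 M and 0 M NaCl controls. The labelled C150 core dimer (truncated at 149) at 1.0-2.0 μM in HEPES pH 7.5 was tested with eight half-log compound dilutions, top 100, 31.6 or 10 μM. EC50 was obtained by non-linear fit from triplicates run three times.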

[1] = Cell viability assay (AlamarBlue) in HepAD38 cells; settings: human

Molecule | EC50 (HBV) | CC50 (HepAD38 cells) | EC50 (HBV; Hepatitis B virus, 144 h) | IC50 (HBV core protein) | CC50 at 6 days [1]
3-{1-[5-(1H-indole-2-carbonyl)-2H,4H,5H,6H,7H-pyrazolo[4,3-c]pyridin-3-yl]-N-methylformamido}-N-methanesulfonylpropanamide [Example 244] | < 100 µM | > 10 µM | – | – | –
CN(C(=O)c1[nH]nc2c1CN(C(=O)c1cc3cc(F)c(Cl)cc3[nH]1)CC2)C1CC1 [Example 329, 5-(6-chloro-5-fluoro-1H-indole-2-carbonyl)-N-cyclopropyl-N-methyl-2H,4H,5H,6H,7H-pyrazolo[4,3-c]pyridine-3-carboxamide] | – | – | < 1 µM | < 5 µM | > 10 µM
CCc1cc(F)cc2[nH]c(C(=O)N3CCc4n[nH]c(C(=O)N(C)C5CC5)c4C3)cc12 [Example 330, N-cyclopropyl-5-(4-ethyl-6-fluoro-1H-indole-2-carbonyl)-N-methyl-2H,4H,5H,6H,7H-pyrazolo[4,3-c]pyridine-3-carboxamide] | – | – | < 1 µM | < 5 µM | > 10 µM
CCc1cccc2[nH]c(C(=O)N3CCc4[nH]nc(C56CC(C5)C6)c4C3)cc12 [Example 331, 2-(3-{bicyclo[1.1.1]pentan-1-yl}-1H,4H,5H,6H,7H-pyrazolo[4,3-c]pyridine-5-carbonyl)-4-ethyl-1H-indole] | – | – | < 1 µM | < 5 µM | > 10 µM
O=C(c1cc2c(F)c(F)ccc2[nH]1)N1CCc2[nH]nc(C34CC(C3)C4)c2C1 [Example 332, 2-(3-{bicyclo[1.1.1]pentan-1-yl}-1H,4H,5H,6H,7H-pyrazolo[4,3-c]pyridine-5-carbonyl)-4,5-difluoro-1H-indole] | – | – | < 1 µM | < 5 µM | > 10 µM
O=C(c1cc2c(F)cc(F)cc2[nH]1)N1CCc2[nH]nc(C34CC(C3)C4)c2C1 [Example 333, 2-(3-{bicyclo[1.1.1]pentan-1-yl}-1H,4H,5H,6H,7H-pyrazolo[4,3-c]pyridine-5-carbonyl)-4,6-difluoro-1H-indole] | – | – | < 1 µM | < 5 µM | > 10 µM
CCc1cc(F)cc2[nH]c(C(=O)N3CCc4[nH]nc(C56CC(C5)C6)c4C3)cc12 [Example 334, 2-(3-{bicyclo[1.1.1]pentan-1-yl}-1H,4H,5H,6H,7H-pyrazolo[4,3-c]pyridine-5-carbonyl)-4-ethyl-6-fluoro-1H-indole] | – | – | < 1 µM | < 5 µM | > 10 µM
Cc1cc(F)cc2[nH]c(C(=O)N3CCc4[nH]nc(C56CC(C5)C6)c4C3)cc12 [Example 336, 2-(3-{bicyclo[1.1.1]pentan-1-yl}-1H,4H,5H,6H,7H-pyrazolo[4,3-c]pyridine-5-carbonyl)-6-fluoro-4-methyl-1H-indole] | – | – | < 1 µM | < 5 µM | > 10 µM
CCc1cccc2[nH]c(C(=O)N3CCc4[nH]nc(C5CCCO5)c4C3)cc12 (centres unmarked) [Example 337, 4-ethyl-2-[3-(oxolan-2-yl)-1H,4H,5H,6H,7H-pyrazolo[4,3-c]pyridine-5-carbonyl]-1H-indole] | – | – | < 1 µM | < 5 µM | > 10 µM
O=C(c1cc2c(F)c(F)ccc2[nH]1)N1CCc2[nH]nc(C3CCCO3)c2C1 (centres unmarked) [Example 338, 4,5-difluoro-2-[3-(oxolan-2-yl)-1H,4H,5H,6H,7H-pyrazolo[4,3-c]pyridine-5-carbonyl]-1H-indole] | – | – | < 1 µM | < 5 µM | > 10 µM
O=C(c1cc2c(F)cc(F)cc2[nH]1)N1CCc2[nH]nc(C3CCCO3)c2C1 (centres unmarked) [Example 339, 4,6-difluoro-2-[3-(oxolan-2-yl)-1H,4H,5H,6H,7H-pyrazolo[4,3-c]pyridine-5-carbonyl]-1H-indole] | – | – | < 1 µM | < 5 µM | > 10 µM
CCc1cc(F)cc2[nH]c(C(=O)N3CCc4[nH]nc(C5CCCO5)c4C3)cc12 (centres unmarked) [Example 340, 4-ethyl-6-fluoro-2-[3-(oxolan-2-yl)-1H,4H,5H,6H,7H-pyrazolo[4,3-c]pyridine-5-carbonyl]-1H-indole] | – | – | < 1 µM | < 5 µM | > 10 µM
O=C(c1cc2c(Cl)cc(F)cc2[nH]1)N1CCc2[nH]nc(C3CCCO3)c2C1 (centres unmarked) [Example 341, 4-chloro-6-fluoro-2-[3-(oxolan-2-yl)-1H,4H,5H,6H,7H-pyrazolo[4,3-c]pyridine-5-carbonyl]-1H-indole] | – | – | < 1 µM | < 5 µM | > 10 µM
Cc1cc(F)cc2[nH]c(C(=O)N3CCc4[nH]nc(C5CCCO5)c4C3)cc12 (centres unmarked) [Example 342, 6-fluoro-4-methyl-2-[3-(oxolan-2-yl)-1H,4H,5H,6H,7H-pyrazolo[4,3-c]pyridine-5-carbonyl]-1H-indole] | – | – | < 1 µM | < 5 µM | > 10 µM
O=C(c1cc2ccccc2[nH]1)N1CCc2[nH]nc(C34CC(C3)C4)c2C1 [Example 343, 2-(3-{bicyclo[1.1.1]pentan-1-yl}-1H,4H,5H,6H,7H-pyrazolo[4,3-c]pyridine-5-carbonyl)-1H-indole] | – | – | < 1 µM | < 5 µM | > 10 µM
O=C(c1cc2ccccc2[nH]1)N1CCc2[nH]nc(C3CCCO3)c2C1 (centres unmarked) [Example 344, 2-[3-(oxolan-2-yl)-1H,4H,5H,6H,7H-pyrazolo[4,3-c]pyridine-5-carbonyl]-1H-indole] | – | – | < 1 µM | < 5 µM | > 10 µM
CN(C(=O)c1n[nH]c2c1CN(C(=O)c1cc3ccccc3[nH]1)CC2)C1(COCC(F)(F)F)CC1 [Example 359, 5-(1H-indole-2-carbonyl)-N-methyl-N-{1-[(2,2,2-trifluoroethoxy)methyl]cyclopropyl}-1H,4H,5H,6H,7H-pyrazolo[4,3-c]pyridine-3-carboxamide] | – | – | < 1 µM | < 5 µM | > 10 µM
CN(C(=O)c1n[nH]c2c1CN(C(=O)c1cc3ccccc3[nH]1)CC2)C1(COCC(F)F)CC1 [Example 360, N-{1-[(2,2-difluoroethoxy)methyl]cyclopropyl}-5-(1H-indole-2-carbonyl)-N-methyl-1H,4H,5H,6H,7H-pyrazolo[4,3-c]pyridine-3-carboxamide] | – | – | < 1 µM | < 5 µM | > 10 µM
CN(C(=O)c1n[nH]c2c1CN(C(=O)c1cc3ccccc3[nH]1)CC2)C1(CC#N)CC1 [Example 361, N-[1-(cyanomethyl)cyclopropyl]-5-(1H-indole-2-carbonyl)-N-methyl-1H,4H,5H,6H,7H-pyrazolo[4,3-c]pyridine-3-carboxamide] | – | – | 1 to 25 µM | < 5 µM | > 10 µM
CCOCC1(N(C)C(=O)c2[nH]nc3c2CN(C(=O)c2cc4c(F)cc(F)cc4[nH]2)CC3)CC1 [Example 363, 5-(4,6-difluoro-1H-indole-2-carbonyl)-N-[1-(ethoxymethyl)cyclopropyl]-N-methyl-2H,4H,5H,6H,7H-pyrazolo[4,3-c]pyridine-3-carboxamide] | – | – | < 1 µM | < 5 µM | > 10 µM
CCOCC1(N(C)C(=O)c2[nH]nc3c2CN(C(=O)c2cc4c(Cl)c(F)ccc4[nH]2)CC3)CC1 [Example 364, 5-(4-chloro-5-fluoro-1H-indole-2-carbonyl)-N-[1-(ethoxymethyl)cyclopropyl]-N-methyl-2H,4H,5H,6H,7H-pyrazolo[4,3-c]pyridine-3-carboxamide] | – | – | < 1 µM | < 5 µM | > 10 µM
CCOCC1(N(C)C(=O)c2[nH]nc3c2CN(C(=O)c2cc4c(Cl)cc(F)cc4[nH]2)CC3)CC1 [Example 365, 5-(4-chloro-6-fluoro-1H-indole-2-carbonyl)-N-[1-(ethoxymethyl)cyclopropyl]-N-methyl-2H,4H,5H,6H,7H-pyrazolo[4,3-c]pyridine-3-carboxamide] | – | – | < 1 µM | < 5 µM | > 10 µM
CCOCC1(N(C)C(=O)c2[nH]nc3c2CN(C(=O)c2cc4c(C)cc(F)cc4[nH]2)CC3)CC1 [Example 366, N-[1-(ethoxymethyl)cyclopropyl]-5-(6-fluoro-4-methyl-1H-indole-2-carbonyl)-N-methyl-2H,4H,5H,6H,7H-pyrazolo[4,3-c]pyridine-3-carboxamide] | – | – | < 1 µM | < 5 µM | > 10 µM
CCOCC1(N(C)C(=O)c2[nH]nc3c2CN(C(=O)c2cc4cccc(F)c4[nH]2)CC3)CC1 [Example 367, N-[1-(ethoxymethyl)cyclopropyl]-5-(7-fluoro-1H-indole-2-carbonyl)-N-methyl-2H,4H,5H,6H,7H-pyrazolo[4,3-c]pyridine-3-carboxamide] | – | – | < 1 µM | < 5 µM | > 10 µM
CN(C(=O)c1[nH]nc2c1CN(C(=O)c1cc3ccccc3[nH]1)CC2)C1(c2cocn2)CC1 [Example 368, 5-(1H-indole-2-carbonyl)-N-methyl-N-[1-(1,3-oxazol-4-yl)cyclopropyl]-2H,4H,5H,6H,7H-pyrazolo[4,3-c]pyridine-3-carboxamide] | – | – | < 1 µM | < 5 µM | > 10 µM
